{
  "source": "patent US9901637B2",
  "about": "“Vitamin D3 and analogs thereof for treating alopecia” (priority 2009, dated 2018)",
  "key": {"[1]": {"test_system": "chemotherapy-induced alopecia (CIA)", "settings": "neonatal rats, i.p. chemotherapy, recorded 10 days after last dose", "procedure": "Specifically, Long Evans and Sprague Dawley rats with pups were purchased from Harlan Laboratories, Inc. They were housed and fed according to applicable animal handling rules and regulations. Pups were allowed to acclimate for 48 hours prior to the start of experiments. […] Rats were isolated from their littermates and mother for 6-hour periods of time. Subsequently, the treated area was cleaned with soap and water and pups were returned to their litters. On day 13, rats either received etoposide (1.5 mg/kg daily for 3 days) or cyclophosphamide (CTX) (37.5 mg/kg once) or combination cyclophosphamide (35 mg/kg once) and doxorubicin (2.5 mg/kg daily for 3 days). All chemotherapies were purchased from Sigma and were given intraperitoneally (i.p.) in a total volume of 0.1 mL. Alopecia was recorded 10 days after the last dose of chemotherapy."}, "[2]": {"test_system": "chemotherapy-induced alopecia (CIA)", "test": "Alopecia in chloroleukemic rats receiving multi-course chemotherapy, topical calcitriol", "settings": "for Extent of Alopecia: number of rats with grade 4+: rats treated with Cyclophosphamide (CTX), 4+=75-100% alopecia", "from_the_text": "Long Evans Rats (Harlan Laboratories, Inc) were 3 days old upon arrival. The weight of the animals was obtained upon arrival and every day until the conclusion of the experiments using an electronic scale (American Scientific Products TL 410s). Rats were housed for two days prior to the beginning of experiments. Animals were then randomized in four groups.\nTreatments were started on day 6 after birth. […] Each application entailed rubbing an area of 2 cm^2 for 10 seconds with right index finger covered with a nitrile exam glove. After the completion of the treatments, each rat was individually separated for 6 hours. Subsequently each rat's head and back was washed with mild hand soap (Soft CIDE-EC from VWR International) and distilled water. Pups where then placed back with their mothers and taken back to the animal rooms. For the second anagen cycle, adult rats were placed back in their cages with their littermates and taken back to the animal rooms.\nOn day 23 after birth, a blood sample was taken from all rats and differentials were performed. Rats with leukemia were sacrificed while rats without leukemia were used for further experiments. A second differential was performed on day 31, and leukemic animals were sacrificed.\nVials of 1 mL were subdivided and kept in the refrigerator at 4° C. […] Unused preparations were disposed of.\nFor the second course of chemotherapy, rats received 20 mg/kg ADM on days 47 to 49 as described above."}, "MIAC51": {"test_system": "MIAC51", "test": "Survival (cure) rate of chloroleukemic rats after two rounds of chemotherapy", "type": "in vivo, Long Evans Rats", "settings": "rats treated with Cyclophosphamide (CTX), after Two Rounds of Chemotherapy", "procedure": "Animals were then randomized in four groups. All rats received MIAC51 as described below.\nOn day 5 after birth all rats received 1×105 MIAC51 intraperitoneally in 0.1 ml of serum free (SF) RPMI. MIAC51 were cultured in RPMI 1640 supplemented with L-glutamine and 10% fetal bovine serum at […] in a 5% CO2, 100% humidity incubator. Cells were grown to 50% confluency (1.5×106 ml) collected in 50 ml conical tubes, centrifuged at 600 g for 10 minutes at room temperature and resuspended in SF-RPMI at a concentration of 1×10^6/ml prior to injection."}},
  "data": [
    {"smiles": "O=P1(N(CCCl)CCCl)NCCCO1", "note": "(centres unmarked) [CTX, cyclophosphamide]", "values": [
      {"measurement": "alopecia in rats receiving chemotherapy without calcitriol", "setting": "[1]", "result": "totally alopecic"},
      {"measurement": "extent of alopecia (grade) in all rats receiving chemotherapy alone", "setting": "[2]; chloroleukemic Long Evans rats, after the first round of chemotherapy", "result": "+4"},
      {"measurement": "Extent of Alopecia: number of rats with grade 4+", "setting": "[2]; after First Round of Chemotherapy", "result": 40},
      {"measurement": "Extent of Alopecia: number of rats with grade 4+", "setting": "[2]; after Second Round of Chemotherapy", "result": 8},
      {"measurement": "Survival Rate, % cured", "setting": "MIAC51", "result": 20, "unit": "%"}
    ]}
  ]
}
